# Source: US12421209B2, “Compounds” (Hoffmann-La Roche Inc., priority 2021, dated 2025)
# Legend:
# NLRP3 [1] = molecular target: T1, NLRP3 (Homo sapiens, UniProt Q96P20); experiment: THP-1 cells pyroptosis assay (LPS priming, nigericin, resazurin read-out); type: cell-based; set-up: Seed THP-1 cells (25,000 cells/well) containing 1.0 μg/ml LPS; host or cells: THP-1 cells; conditions: 1.0 μg/ml LPS, 5 μM nigericin
# Description: THP-1 cells (ATCC #TIB-202) were grown in RPMI containing L-glutamine (Gibco #11835) supplemented with 1 mM sodium pyruvate (Sigma #S8636) and penicillin (100 units/ml)/streptomycin (0.1 mg/ml) (Sigma #P4333) in 10% Fetal Bovine Serum (FBS) (Sigma #F0804). The cells were routinely passaged and grown to confluency (˜10^6 cells/ml). On the day of the experiment, THP-1 cells were harvested and resuspended into RPMI medium (without FBS). The cells were then counted and viability (>90%) checked by Trypan blue (Sigma #T8154). Appropriate dilutions were made to give a concentration of 625,000 cells/ml. To this diluted cell solution was added LPS (Sigma #L4524) to give a lug/ml Final Assay Concentration (FAC). 40 μl of the final preparation was aliquoted into each well of a 96-well plate. The plate thus prepared was used for compound screening.
# The following method step-by-step assay was followed for compound screening. • 1. Seed THP-1 cells (25,000 cells/well) containing 1.0 μg/ml LPS in 40 μl of RPMI medium (without FBS) in 96-well, black walled, clear bottom cell culture plates coated with poly-D-lysine (VWR #734-0317) • 2. Add 5 μl compound (8 points half-log dilution, with 10 μM top dose) or vehicle (DMSO 0.1% FAC) to the appropriate wells • 3. Incubate for 3 hours at 37° C., 5% CO2 • 4. Add 5 μl nigericin (Sigma #N7143) (FAC 5 μM) to all wells • 5. Incubate for 1 hr at 37° C., 5% CO2 • 6. At the end of the incubation period, spin plates at 300×g for 3 mins and remove supernatant • 7. Then add 50 μl of resazurin (Sigma #R7017) (FAC 100 μM resazurin in RPMI medium without FBS) and incubate plates for a further 1-2 hours at 37° C. and 5% CO2 • 8. Plates were read in an Envision reader at Ex 560 nm and Em 590 nm • 9. IC50 data is fitted to a non-linear regression equation (log inhibitor vs response-variable slope 4-parameters)
# NLRP3 [2] = molecular target: T1, NLRP3; experiment: Human whole blood IL-1β release assay (LPS, nigericin, AlphaLisa); type: cell-based; set-up: Human whole blood in Li-heparin tubes was obtained from healthy donors; from tissue; host or cells: human whole blood from healthy donors; conditions: 10 μM nigericin
# Description: For systemic delivery, the ability to inhibit NLRP3 when the compounds are present within the bloodstream is of great importance. For this reason, the NLRP3 inhibitory activity of a number of compounds in human whole blood was investigated in accordance with the following protocol.
# Human whole blood in Li-heparin tubes was obtained from healthy donors from a volunteer donor panel. • 1. Plate out 80 μl of whole blood containing lug/ml of LPS in 96-well, clear bottom cell culture plate (Corning #3585) • 2. Add 10 μl compound (8 points half-log dilution with 10 μM top dose) or vehicle (DMSO 0.1% FAC) to the appropriate wells • 3. Incubate for 3 hours at 37° C., 5% CO2 • 4. Add 10 μl nigericin (Sigma #N7143) (10 μM FAC) to all wells • 5. Incubate for 1 hr at 37° C., 5% CO2 • 6. At the end of the incubation period, spin plates at 300×g for 5 mins to pellet cells and remove 20 μl of supernatant and add to 96-well v-bottom plates for IL-1β analysis (note: these plates containing the supernatants can be stored at −80° C. to be analysed at a later date) • 7. IL-1β was measured according to the manufacturer protocol (Perkin Elmer-AlphaLisa IL-1 Kit AL220F-5000) • 8. IC50 data is fitted to a non-linear regression equation (log inhibitor vs response-variable slope 4-parameters)
# T1 sequence (Q96P20 whole entry): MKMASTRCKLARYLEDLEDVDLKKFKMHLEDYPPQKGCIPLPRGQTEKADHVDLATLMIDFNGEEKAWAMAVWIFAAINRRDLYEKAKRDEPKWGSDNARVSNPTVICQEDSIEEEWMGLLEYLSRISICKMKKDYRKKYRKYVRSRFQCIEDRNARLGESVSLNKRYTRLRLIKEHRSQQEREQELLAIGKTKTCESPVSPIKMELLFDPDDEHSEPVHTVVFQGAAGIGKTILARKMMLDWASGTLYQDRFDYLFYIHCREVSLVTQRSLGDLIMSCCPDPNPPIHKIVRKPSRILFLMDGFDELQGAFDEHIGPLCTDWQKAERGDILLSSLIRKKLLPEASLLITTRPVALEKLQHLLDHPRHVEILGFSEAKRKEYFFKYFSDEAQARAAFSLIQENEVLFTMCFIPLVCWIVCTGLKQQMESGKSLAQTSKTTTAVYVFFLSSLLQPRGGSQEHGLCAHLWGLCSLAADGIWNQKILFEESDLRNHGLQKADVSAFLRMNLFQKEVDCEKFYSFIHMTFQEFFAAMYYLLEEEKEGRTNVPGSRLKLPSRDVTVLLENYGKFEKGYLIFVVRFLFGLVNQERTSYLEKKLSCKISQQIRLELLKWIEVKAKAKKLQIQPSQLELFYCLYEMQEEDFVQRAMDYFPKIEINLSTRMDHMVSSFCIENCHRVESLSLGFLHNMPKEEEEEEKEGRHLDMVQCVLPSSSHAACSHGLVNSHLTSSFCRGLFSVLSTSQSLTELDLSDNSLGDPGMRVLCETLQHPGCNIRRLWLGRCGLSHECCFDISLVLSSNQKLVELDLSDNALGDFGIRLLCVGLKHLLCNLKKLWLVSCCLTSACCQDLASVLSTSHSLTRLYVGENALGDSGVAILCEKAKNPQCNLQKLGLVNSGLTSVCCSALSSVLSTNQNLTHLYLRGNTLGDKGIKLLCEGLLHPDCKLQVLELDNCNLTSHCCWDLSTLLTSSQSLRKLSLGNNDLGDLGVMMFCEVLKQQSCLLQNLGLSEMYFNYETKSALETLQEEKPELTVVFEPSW
SMILES,IC50 (NLRP3 [1]),IC50 (NLRP3 [2])
"Cc1nc(NC2CCC3CCCN3C2)nnc1-c1ccc(C(F)(F)F)cc1O (single isomer, unassigned) [Example 34, 2-[3-[[(6R or 6S, 8aR or 8aS)-1,2,3,5,6,7,8,8a-octahydroindolizin-6-yl]amino]-5-methyl-1,2,4-triazin-6-yl]-5-(trifluoromethyl) phenol]",209 nM,
"CCN1CCC[C@@H](Nc2nnc(-c3ccc(Cl)cc3O)c(C)n2)C1 [Example 5, 5-Chloro-2-[3-[[(3R)-1-ethyl-3-piperidyl]amino]-5-methyl-1,2,4-triazin-6-yl]phenol]",1.3 nM,3.8 nM
"Cc1nc(N[C@@H]2CCCN(C)C2)nnc1-c1ccc(C(F)(F)F)cc1O [Example 18, 2-[5-Methyl-3-[[(3R)-1-methyl-3-piperidyl]amino]-1,2,4-triazin-6-yl]-5-(trifluoromethyl) phenol]",1 nM,20.2 nM
"Cc1nc(N[C@@H]2CCCC[C@H]2O)nnc1-c1ccc(C(F)(F)F)cc1O [Example 19, 2-[3-[[(1R,2R)-2-Hydroxycyclohexyl]amino]-5-methyl-1,2,4-triazin-6-yl]-5-(trifluoromethyl) phenol]",32.2 nM,228 nM
"Cc1nc(N[C@@H]2CCCNC2)nnc1-c1ccc(C(F)(F)F)cc1O [Example 17, 2-[5-Methyl-3-[[(3R)-3-piperidyl]amino]-1,2,4-triazin-6-yl]-5-(trifluoromethyl) phenol]",13.4 nM,46.5 nM
"CCN1CCC[C@@H](Nc2nnc(-c3ccc(OC(F)(F)F)cc3O)c(C)n2)C1 [Example 22, 2-[3-[[(3R)-1-Ethyl-3-piperidyl]amino]-5-methyl-1,2,4-triazin-6-yl]-5-(trifluoromethoxy) phenol]",1.2 nM,10.2 nM
"CCN1CCC[C@@H](Nc2nnc(-c3ccc4c(c3O)CC4)c(C)n2)C1 [Example 8, 3-[3-[[(3R)-1-Ethyl-3-piperidyl]amino]-5-methyl-1,2,4-triazin-6-yl]bicyclo[4.2.0]octa-1(6),2,4-trien-2-ol]",0.4 nM,4.3 nM
"Cc1nc(N[C@H]2C[C@@](C)(O)C2)nnc1-c1ccc(C(F)(F)F)cc1O [Example 3, 2-[3-[(3-Hydroxy-3-methyl-cyclobutyl)amino]-5-methyl-1,2,4-triazin-6-yl]-5-(trifluoromethyl) phenol]",107 nM,191 nM
"Cc1nc(NC2CCCN3CCCC23)nnc1-c1ccc(C(F)(F)F)cc1O (single isomer, unassigned) [Example 29]",163 nM,
"Cc1nc(N[C@@H]2CCCN(C(C)(C)C)C2)nnc1-c1ccc(C(F)(F)F)cc1O (single isomer, unassigned) [Example 10, 2-[3-[[(3R or 3S)-1-tert-Butyl-3-piperidyl]amino]-5-methyl-1,2,4-triazin-6-yl]-5-(trifluoromethyl) phenol]",434 nM,
"Cc1nc(N[C@H]2CCCN3CCC[C@@H]23)nnc1-c1ccc(C(F)(F)F)cc1O (racemic) [Example 27, 2-[5-Methyl-3-[[rac-(8S,8aS)-1,2,3,5,6,7,8,8a-octahydroindolizin-8-yl]amino]-1,2,4-triazin-6-yl]-5-(trifluoromethyl) phenol]",20.9 nM,
"Cc1nc(NC2CCC3CCCN3C2)nnc1-c1ccc(C(F)(F)F)cc1O (single isomer, unassigned) [Example 32, 2-[3-[[(6R or 6S,8aS or 8aR)-1,2,3,5,6,7,8,8a-octahydroindolizin-6-yl]amino]-5-methyl-1,2,4-triazin-6-yl]-5-(trifluoromethyl) phenol]",16.1 nM,36.5 nM
"CCN1CCC[C@@H](Nc2nnc(-c3ccc4c(c3O)CCC4)c(C)n2)C1 [Example 25, 5-[3-[[(3R)-1-Ethyl-3-piperidyl]amino]-5-methyl-1,2,4-triazin-6-yl]indan-4-ol]",0.7 nM,6.3 nM
"Cc1nc(NC2CCC3CCCN3C2)nnc1-c1ccc(C(F)(F)F)cc1O (single isomer, unassigned) [Example 33, 2-[3-[[(6S or 6R,8aR or 8aS)-1,2,3,5,6,7,8,8a-octahydroindolizin-6-yl]amino]-5-methyl-1,2,4-triazin-6-yl]-5-(trifluoromethyl) phenol]",46.1 nM,300 nM
"CCN1CCC[C@@H](Nc2nnc(-c3ccc(C#N)cc3O)c(C)n2)C1 [Example 12, 4-[3-[[(3R)-1-Ethyl-3-piperidyl]amino]-5-methyl-1,2,4-triazin-6-yl]-3-hydroxy-benzonitrile]",20.5 nM,23.9 nM
"Cc1nc(NC2CCC3CCCN3C2)nnc1-c1ccc(C(F)(F)F)cc1O (single isomer, unassigned) [Example 31, 2-[3-[[(6S or 6R,8aS or 8aR)-1,2,3,5,6,7,8,8a-octahydroindolizin-6-yl]amino]-5-methyl-1,2,4-triazin-6-yl]-5-(trifluoromethyl) phenol]",> 1000 nM,
"Cc1nc(N[C@@H]2CCCN(C)C2)nnc1-c1ccc(Cl)cc1O [Example 16, 5-Chloro-2-[5-methyl-3-[[(3R)-1-methyl-3-piperidyl]amino]-1,2,4-triazin-6-yl]phenol]",1.5 nM,13.2 nM
"CCN1CCC[C@@H](Nc2nnc(-c3ccc(C(F)(F)F)cc3O)c(C(F)(F)F)n2)C1 [Example 30, 2-[3-[[(3R)-1-Ethyl-3-piperidyl]amino]-5-(trifluoromethyl)-1,2,4-triazin-6-yl]-5-(trifluoromethyl) phenol; 2,2,2-trifluoroacetic acid]",111 nM,
"CCN1C[C@@H](O)C[C@@H](Nc2nnc(-c3ccc(C(F)(F)F)cc3O)c(C)n2)C1 [Example 23, (3S,5R)-1-Ethyl-5-[[6-[2-hydroxy-4-(trifluoromethyl)phenyl]-5-methyl-1,2,4-triazin-3-yl]amino]piperidin-3-ol]",40.1 nM,40.5 nM
"CCN1CCC[C@@H](Nc2nnc(-c3c(O)cc(C(F)(F)F)cc3F)c(C)n2)C1 [Example 9, 2-[3-[[(3R)-1-Ethyl-3-piperidyl]amino]-5-methyl-1,2,4-triazin-6-yl]-3-fluoro-5-(trifluoromethyl) phenol]",3.5 nM,27.4 nM
"Cc1nc(NC2CCCN3CCCC23)nnc1-c1ccc(C(F)(F)F)cc1O (single isomer, unassigned) [Example 28]",2.4 nM,18.8 nM
"Cc1nc(N[C@H]2CCCN3CCC[C@H]23)nnc1-c1ccc(C(F)(F)F)cc1O (racemic) [Example 26, 2-[5-Methyl-3-[[rac-(8S,8aR)-1,2,3,5,6,7,8,8a-octahydroindolizin-8-yl]amino]-1,2,4-triazin-6-yl]-5-(trifluoromethyl) phenol]",5.1 nM,
"Cc1nc(NC2CCCN(C(C)(C)C)C2)nnc1-c1ccc(C(F)(F)F)cc1O (single isomer, unassigned) [Example 11, 2-[3-[[(3S or 3R)-1-tert-Butyl-3-piperidyl]amino]-5-methyl-1,2,4-triazin-6-yl]-5-(trifluoromethyl) phenol]",2.2 nM,15.6 nM
"Cc1nc(NC2CCCn3ccnc32)nnc1-c1ccc(C(F)(F)F)cc1O (centres unmarked) [Example 14, 2-[5-Methyl-3-(5,6,7,8-tetrahydroimidazo[1,2-a]pyridin-8-ylamino)-1,2,4-triazin-6-yl]-5-(trifluoromethyl) phenol]",350 nM,
"Cc1nc(N[C@@H]2C[C@H](F)CN(C)C2)nnc1-c1ccc(C(F)(F)F)cc1O [Example 13, 2-[3-[[(3R,5S)-5-Fluoro-1-methyl-3-piperidyl]amino]-5-methyl-1,2,4-triazin-6-yl]-5-(trifluoromethyl) phenol]",77 nM,
